Measured values taken from patent US20050244413A1, “Compositions and methods for treating cancer using cytotoxic CD44 antibody immunoconjugates and chemotherapeutic agents” (priority 2002, published 2005).

How the values were obtained:
[1] = system: antigen-positive cell line FaDu; test: In vitro cytotoxicity, MTS/PMS cell proliferation assay, FaDu; format: cell-based, human; settings: FaDu cells, 4 days exposure
Procedure: For determination of viable cells the Cell Titer 96® AQueous non-radioactive cell proliferation assay (Promega) was used. Five thousand cells per well were seeded into 96-well plates in 90 μl medium without phenole red. Cells were allowed to settle down for 1 to 3 h and then serial dilutions of the immunoconjugate in 10 μl PBS were added. Cells without immunoconjugate served as negative control. Cells were incubated for 4 days at 37° C. in a humified 5% CO2 atmosphere and then 20 μl MTS/PMS were added according to the manufacturer's recommendation. After additional 1 to 4 h incubation at 37° C. the absorbance at 490 nm was recorded using an ELISA plate reader. For each cell line triplicates were analyzed. The percentage of the surviving cell fraction and the IC50 value were calculated using the GraphPad Prism® (Version 3.0) software.
The in vitro cytotoxicity of BIWI 1 was evaluated using the antigen-positive cell lines A431 and FaDu, and the antigen-negative cell line […]. Cells were exposed to different concentrations of BIWI 1 for 4 days, then stained with MTS/PMS and assayed on an ELISA plate reader. The surviving fractions of cells were then calculated using the GraphPad Prism® software package.

MDA-MB 453 tumors = test: BIWI 1 monotherapy in MDA-MB 453 xenografted mice; format: in vivo, mouse
Procedure: In vivo anti-tumor efficacy of BIWI 1 was tested in three nude mouse xenograft models applying antigen-positive human tumors: A431 (ATCC # CRL 1555; epidermoid carcinoma of the vulva), FaDu (ATCC # HTB 43; squamous cell carcinoma of the pharynx), and MDA-MB 453 (ATCC # HTB-131; breast carcinoma). The cells were received from ATCC and cultured in RPMI1640 medium containing 10% fetal calf serum and supplements. 1×10^6 tumors cells were transplanted subcutaneously into the right flank of 6 week old female NMRI-nu/nu mice. Tumor growth was monitored by measuring tumor size. A tumor response was rated as complete response when the tumor completely disappeared at any time after start of treatment. The response was rated as partial response when the tumor volume decreased after treatment but thereafter started regrowing. The tolerability of the treatment was monitored by measuring mouse weight during the observation period.
Groups of 6 mice were treated with 6.25 mg/kg BIWI 1, 12.5 mg/kg BIWI 1, and 25 mg/kg BIWI 1, respectively. Treatment consisted of i.v. injections of BIWI 1 given weekly for four weeks. The average tumor size at start of treatment was 246±/−79 mm^3 (PBS), 216 +/85 mm^3 (6.25 mg/kg BIWI 1), 188±/−79 mm^3 (12.5 mg/kg BIWI 1), and 207±/−96 mm3 (25 mg/kg BIWI 1), respectively. The initial tumor volume doubling time of the control tumors was approximately 5 days. […] Tumors treated with 12.5 mg/kg or 6.25 mg/kg responded completely in 5/6 cases in each dose group, and 4 animals of each group stayed tumor free until the end of the experiment.

MDA-MB-453 tumors = test: BIWI 1 combination with capecitabine in nude mice xenografted with MDA-MB-453 tumors; format: in vivo, mouse; settings: BIWI 1 75 μg/kg DM1 i.v. q7dx3
Procedure: The xenograft model MDA-MB-453 was handled as in Section 2.8.
BIWI 1 solution (protein concentration 2.95 mg/ml, 53.6 μg DM1/ml, 3.7 molecules DM1/molecule antibody) was diluted in PBS to a DM1 concentration of 75 μg/kg body weight. […] The antibody solution was injected into the tail vein with an injection volume of 200 μl for a 25 g mouse. In the control groups without BIWI 1 treatment animals were injected i.v. with PBS. BIWI 1 was given i.v. into the tail vein at a dose of 75 μg DM1/kg once weekly, for three weeks. Capecitabine (150 mg tablets, Roche) was given intragastrically (by gavage needle, as a suspension in water) at a dose of 375 or 500 mg/kg during three weeks on 5 consecutive days per week.
To assess the efficacy of BIMI 1 in combination with capecitabine, non-curative doses of both drugs were tested as single agents or in combination in nude mice xenografted with MDA-MB453 tumors.
For the combinations experiments BIWI 1 with 75 μg/kg DM1 was combined with 375 or 500 mg/kg capecitabine.

[2] = 25 mg/kg BIWI 1 i.v. weekly for four weeks

## BIWI 1
[1]
  IC50: ~24 nM
MDA-MB 453 tumors; 12.5 mg/kg or 6.25 mg/kg BIWI 1, each group of 6 mice
  animals tumor free until the end of the experiment: 4
MDA-MB 453 tumors; 12.5 mg/kg or 6.25 mg/kg BIWI 1 i.v. weekly for four weeks, in each dose group
  complete responses: 5/6
MDA-MB 453 tumors; [2]
  day on which tumors disappeared: ~22 days
  tumor regrowth until end of observation period (day 64): No tumor regrowth
  tumor response: all tumors responded completely
MDA-MB-453 tumors
  GDF4: 2.6
  T4T: 26.9 days
  T/C (d25): 31%
